Measurements taken from patent US20150164837A1, “USE OF AMPHOTERIC SURFACTANTS FOR THE PREVENTION AND TREATMENT OF PATHOGENIC VAGINAL BIOFILMS IN VAGINAL INFECTIONS” (DR. AUGUST WOLFF GMBH & CO. KG ARZNEIMITTEL, priority 2012, published 2015).

What was measured:
[1] = test system: vaginal biofilm (Gardnerella vaginalis, Atopobium vaginae); details: cited from earlier work
[2] = test system: Gardnerella vaginalis biofilms; assay: Crystal violet staining of biofilm mass, forming (t0) and well developed, still growing (t20m) biofilms; type: cell-based, Gardnerella vaginalis (strain ATCC 14018); details: for inhibition of biofilm formation / reduction of cell mass (in words): well developed and still growing biofilms (t20m)
Procedure: (§1) The inhibitory effect of amphoteric surfactants on the formation of Gardnerella vaginalis biofilms were tested in biofilms, grown in 96 well tissue culture test plates. Before starting the biofilm experiments, MIC (minimal inhibitory concentration) values for sodium cocoamphoacetate for planktonic growing Gardnerella vaginalis cultures were determined MIC values for sodium cocoamphoacetate against Gardnerella vaginalis had not been reported so far.
(§2) Gardnerella vaginalis (strain ATCC 14018) were grown on Columbia agar plates supplemented with 5% sheep blood, liquid cultures were grown in brain heart infusion broth supplemented with 2% (w/v) gelatine, 0.5% yeast extract, 0.1% starch and 1% D-(+)-glucose at 37° C. and with the addition of 5% CO2.
(§3) For a preculture, bacteria were inoculated from plate or glycerol stock and grew overnight. This preculture was used for starting a new culture. Here the cultivation was performed in microtiter plates in a final volume of […] For testing substances in a forming biofilm (t0), substances were added at this time point. After 20 hours of cultivation, measurements determining the mass of biofilm cells and the biofilm viability were started.
For testing substances in a well developed and further growing biofilm (t20m), medium was gently removed after 20 hours of cultivation and compounds were added in fresh medium for enabling further growth. Incubation was performed for another 20 hours.
At 20 hours (t0) respectively 40 hours of cultivation (t20m) measurements were started, concerning the biofilm formation and viability.
(§4) Crystal violet (CV) staining was used to determine the mass of biofilm cells. For this purpose biofilms grown in 96 well tissue test plates were washed with buffer (PBS, pH of 7.4), dried and stained under shaking with 2% crystal violet in ethanol. After washing with buffer, drying and over night extraction with ethanol, the absorbance (OD620) was measured in a plate reader and the percentage of biomass inhibition was calculated.

[3] = test system: Gardnerella vaginalis biofilms; assay: Live/Dead BacLight viability staining, forming (t0) and well developed, still growing (t20m) biofilms; type: cell-based, Gardnerella vaginalis (strain ATCC 14018); details: for inhibition of cell viability (in words): well developed and still growing biofilms (t20m)
Procedure: as §1, §2
as §3, with “started. […]” for “started.”
The viability was determined using the Live/Dead BacLight bacterial viability staining. […] In contrast, propidium iodide penetrates only bacteria with damaged membranes, causing a reduction in the SYTO 9 stain fluorescence when both dyes are present. […] After 15 min of incubation in the dark fluorescence was measured in a microtiter plate reader equipped with detectors and filter sets for monitoring red (630 nm) and green (530 nm) fluorescence. Afterwards the percentage of the reduction of viability was calculated.
The tested substances namely cocoamidopropyl hydroxysultaine, disodium cocamphodiacetate, sodium cocoamphopropionate and sodium lauroamphoacetate were dissolved in fresh media and added to a mature G. vaginalis biofilm (t20m, see Example 1). After another 20 hrs of incubation, the biofilm viability was determined via Live/Dead staining, as described above.

[4] = test system: Gardnerella vaginalis biofilms in the stationary phase; assay: Biomass of biofilms in the stationary phase (compounds added in PBS to 20 hours old biofilms); type: cell-based; details: 1 mg/ml to 50 mg/ml
Procedure: as §4, with “calculated. To determine how different concentrations of sodium cocoamphoacetate damage well formed biofilms in the stationary phase, compounds were added in PBS buffer to 20 hours old biofilms and analyzed after further 20 hours of incubation by determining their biomass and viability.” for “calculated.”

## Cc1ncc([N+](=O)[O-])n1CCO [metronidazole]
[1]; 500 mg orally twice daily for 7 days, 18 women
  effect on the vaginal biofilm: did not erase the Gardnerella vaginalis biofilm completely
[1]; after 7 day treatment with oral metronidazole
  Nugent Score after treatment: below 7

## disodium cocamphodiacetate
[2]
  inhibition of biofilm formation / reduction of cell mass (in words): reduce the cell mass
[3]
  inhibition of cell viability (in words): inhibit the viability

## sodium cocoamphoacetate
[4]
  reduction in biofilm formation: 44-65%
[2]; added at the beginning of biofilm cultivation (t0), concentrations of 0.25 mg/ml and higher
  inhibition of biofilm formation: completely inhibited
[3]; added at the beginning of biofilm cultivation (t0), 0.25 mg/ml to 1 mg/ml
  decrease of viability of the bacterial cells: 90%

## sodium lauroamphoacetate
[2]
  inhibition of biofilm formation / reduction of cell mass (in words): reduce the cell mass
[3]
  inhibition of cell viability (in words): inhibit the viability
